pKi: −log10 of the molar value. Like-named read-outs stand apart in the source and are kept apart here.
Key:
Assay type in all cases: biochemical
opioid receptor delta = molecular target: T1, opioid receptor delta (Homo sapiens, UniProt P41143); assay: GTPγ[35S] binding assay, antagonism of BW-373U86
T1 construct: expressed in transfected cells
Procedure: (§1) Membranes were prepared from cells as described (Bass et al, 1996). GTPγ[5S] binding assays were performed in a 96 well FlashPlate™ format in duplicate using […] GTPγ[^35S] and 5 μg membrane per well in assay buffer composed of 50 mM Tris HCl, pH 7.4, 5 mM MgCl2, 1 mM EDTA, 100 mM NaCl, 30 μM GDP, 0.1% bovine serum albumin and the following protease inhibitors: 100 μg/ml bacitracin, 100 μg/ml benzamidine, 5 μg/ml aprotinin, 5 μg/ml leupeptin. The assay mix was then incubated at 30° C. with increasing concentrations of antagonist (10^−10 M to 10^−5 M) for 10 minutes and challenged with the agonists BW-373U86 (1 nM), dynorphin-A (10 nM), […] (1 μM) for opioid receptors delta, kappa, and mu, respectively. The assays were performed at 30° C. for one hour. The FlashPlates were then centrifuged at 2000×g for 10 minutes. Stimulation of GTPγ[^35S] binding was then quantified using a Wallac Microbeta and Ki calculations were done using Prism™ by Graphpad.

opioid receptor mu = molecular target: T2, opioid receptor mu (Homo sapiens, UniProt P35372); assay: GTPγ[35S] binding assay, antagonism of endorphin
T2 construct: expressed in transfected cells
Procedure: as §1

opioid receptor kappa = molecular target: T3, opioid receptor kappa (Homo sapiens, UniProt P41145); assay: GTPγ[35S] binding assay, antagonism of dynorphin-A
T3 construct: expressed in transfected cells
Procedure: as §1

[1] = read-out: Delta functional Ki (GTPγ[35S] binding)
[2] = read-out: Mu functional Ki (GTPγ[35S] binding)
[3] = read-out: Kappa functional Ki (GTPγ[35S] binding)
[4] = read-out: Delta functional (GTPγ[35S] binding Ki)
[5] = read-out: Mu functional (GTPγ[35S] binding Ki)
[6] = read-out: Kappa functional (GTPγ[35S] binding Ki)
[7] = average Ki, antagonism of BW-373U86 (1 nM) at delta opioid receptor membranes, read-out: Delta functional Ki (GTPγ[35S] binding)
[8] = average Ki, antagonism of endorphin (1 μM) at mu opioid receptor membranes, read-out: Mu functional Ki (GTPγ[35S] binding)
[9] = average Ki, antagonism of dynorphin-A (10 nM) at kappa opioid receptor membranes, read-out: Kappa functional Ki (GTPγ[35S] binding)
[10] = average Ki, antagonism of BW-373U86 (1 nM) stimulated GTPγ[35S] binding, delta opioid receptor membranes, read-out: Delta functional (GTPγ[35S] binding Ki)
[11] = average Ki, antagonism of endorphin (1 μM) stimulated GTPγ[35S] binding, mu opioid receptor membranes, read-out: Mu functional (GTPγ[35S] binding Ki)
[12] = average Ki, antagonism of dynorphin-A (10 nM) stimulated GTPγ[35S] binding, kappa opioid receptor membranes, read-out: Kappa functional (GTPγ[35S] binding Ki)

T3 sequence (P41145 whole entry): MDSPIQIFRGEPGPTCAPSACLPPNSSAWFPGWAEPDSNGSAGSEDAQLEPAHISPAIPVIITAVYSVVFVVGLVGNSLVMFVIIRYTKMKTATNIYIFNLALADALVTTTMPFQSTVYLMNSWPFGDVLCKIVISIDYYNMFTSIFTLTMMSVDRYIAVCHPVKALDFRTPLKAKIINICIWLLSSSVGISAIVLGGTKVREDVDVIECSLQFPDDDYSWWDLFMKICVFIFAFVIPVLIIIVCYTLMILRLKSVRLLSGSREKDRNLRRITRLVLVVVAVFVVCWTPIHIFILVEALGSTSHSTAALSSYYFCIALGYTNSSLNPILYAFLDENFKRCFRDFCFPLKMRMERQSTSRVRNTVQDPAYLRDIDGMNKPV
T2 sequence (P35372 whole entry): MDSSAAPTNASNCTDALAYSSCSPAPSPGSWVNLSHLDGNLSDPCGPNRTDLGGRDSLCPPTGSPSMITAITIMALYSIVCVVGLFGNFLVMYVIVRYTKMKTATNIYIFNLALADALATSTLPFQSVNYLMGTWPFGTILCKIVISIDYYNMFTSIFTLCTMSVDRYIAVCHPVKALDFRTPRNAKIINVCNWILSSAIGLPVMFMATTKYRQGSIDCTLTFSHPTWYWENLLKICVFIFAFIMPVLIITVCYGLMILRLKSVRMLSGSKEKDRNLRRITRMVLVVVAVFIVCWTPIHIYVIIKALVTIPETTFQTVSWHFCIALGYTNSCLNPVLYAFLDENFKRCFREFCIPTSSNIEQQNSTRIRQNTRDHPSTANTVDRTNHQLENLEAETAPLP
T1 sequence (P41143 whole entry): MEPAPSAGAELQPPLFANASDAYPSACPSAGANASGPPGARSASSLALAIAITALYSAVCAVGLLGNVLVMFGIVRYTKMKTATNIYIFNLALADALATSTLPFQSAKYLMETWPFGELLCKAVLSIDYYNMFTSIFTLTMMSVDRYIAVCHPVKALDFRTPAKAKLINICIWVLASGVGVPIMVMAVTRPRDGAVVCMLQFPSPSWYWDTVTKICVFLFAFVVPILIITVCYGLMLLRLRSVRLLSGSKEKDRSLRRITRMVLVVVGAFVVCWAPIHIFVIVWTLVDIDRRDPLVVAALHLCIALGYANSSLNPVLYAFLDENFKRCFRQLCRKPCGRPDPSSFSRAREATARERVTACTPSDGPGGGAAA

CCc1cc(C(N)=O)ccc1-c1cc(F)c(CNCCC(C)C)c(F)c1 [4B-81]
pKi (opioid receptor delta; [1]): 7.82 | pKi (opioid receptor mu; [2]): 7.87 | pKi (opioid receptor kappa; [3]): 7.77

CC(C)CCNCc1ccc(-c2ccc(-c3ncn[nH]3)cc2)c(F)c1 [7B-04]
pKi (opioid receptor delta; [1]): 8.09 | pKi (opioid receptor mu; [2]): 8.60 | pKi (opioid receptor kappa; [3]): 7.87

Cc1cc(C(N)=O)ccc1-c1ccc(CNCCC2CCOCC2)c(F)c1 [4B-60]
pKi (opioid receptor delta; [1]): 8.84 | pKi (opioid receptor mu; [2]): 8.41 | pKi (opioid receptor kappa; [3]): 8.83

Cc1cc(C(N)=O)ccc1-c1ccc(CNCCC2CCOCC2)cc1 [4B-05]
pKi (opioid receptor delta; [4]): 9.05 | pKi (opioid receptor mu; [5]): 8.39 | pKi (opioid receptor kappa; [6]): 8.47

Cc1cc(C(N)=O)ccc1-c1ccc(CNC(C)(C)c2ccccc2)cc1 [4B-19]
pKi (opioid receptor delta; [4]): 7.71 | pKi (opioid receptor mu; [5]): 6.90 | pKi (opioid receptor kappa; [6]): 7.63

NC(=O)c1ccc(-c2ccc(CNC3Cc4ccccc4C3)cc2Cl)c(Cl)c1 [4B-68]
pKi (opioid receptor delta; [7]): 9.14 | pKi (opioid receptor mu; [8]): 9.62 | pKi (opioid receptor kappa; [9]): 9.12

COCCNCc1ccc(-c2cccc(C(N)=O)c2)c(Cl)c1 [6A-07]
pKi (opioid receptor delta; [7]): 10.19 | pKi (opioid receptor mu; [8]): 7.11 | pKi (opioid receptor kappa; [9]): 7.24

CC(C)CCNCc1ccc(-c2cccc(C(N)=O)c2)c(C#N)c1 [1A-04]
pKi (opioid receptor delta; [10]): 7.86 | pKi (opioid receptor mu; [11]): 8.33 | pKi (opioid receptor kappa; [12]): 7.54

CC(C)CCNCc1ccc(-c2ccc(C(N)=O)cc2OCc2ccccc2)cc1 [4B-45]
pKi (opioid receptor delta; [1]): 7.35 | pKi (opioid receptor mu; [2]): 7.40 | pKi (opioid receptor kappa; [3]): 8.01

NC(=O)c1ccc(-c2ccc(CNCCC3CCOCC3)c(F)c2)c(Cl)c1 [4B-58]
pKi (opioid receptor delta; [1]): 8.40 | pKi (opioid receptor mu; [2]): 8.14 | pKi (opioid receptor kappa; [3]): 8.75

CCOCCNCc1ccc(-c2cccc(C(N)=O)c2)c(Cl)c1 [6A-01]
pKi (opioid receptor delta; [7]): 7.59 | pKi (opioid receptor mu; [8]): 7.89 | pKi (opioid receptor kappa; [9]): 7.38

Cc1cc(C(N)=O)ccc1-c1ccc(CNC(C)(C)c2cccc(Cl)c2)cc1 [4B-25]
pKi (opioid receptor delta; [4]): 7.65 | pKi (opioid receptor mu; [5]): 7.42 | pKi (opioid receptor kappa; [6]): 8.21

NC(=O)c1cccc(-c2ccc(CNCCC3CCOCC3)cc2Cl)c1 [4A-08]
pKi (opioid receptor delta; [4]): 8.55 | pKi (opioid receptor mu; [5]): 8.46 | pKi (opioid receptor kappa; [6]): 7.89

NC(=O)c1ccc(-c2ccc(CNC3Cc4ccccc4C3)c(F)c2)c(Cl)c1 [4B-63]
pKi (opioid receptor delta; [1]): 9.20 | pKi (opioid receptor mu; [2]): 9.65 | pKi (opioid receptor kappa; [3]): 9.20

Cc1cc(C(N)=O)ccc1-c1cc(F)c(CNCCC2CCOCC2)c(F)c1 [4B-51]
pKi (opioid receptor delta; [1]): 9.15 | pKi (opioid receptor mu; [2]): 8.67 | pKi (opioid receptor kappa; [3]): 8.71

Cc1cc(C(N)=O)ccc1-c1ccc(CNCc2ccccc2)cc1 [4B-03]
pKi (opioid receptor delta; [4]): 8.40 | pKi (opioid receptor mu; [5]): 8.50 | pKi (opioid receptor kappa; [6]): 8.74

Cc1cc(C(N)=O)ccc1-c1ccc(CNCc2ccc3c(c2)CC(C)(C)O3)cc1 [4B-18]
pKi (opioid receptor delta; [4]): 8.61 | pKi (opioid receptor mu; [5]): 8.24 | pKi (opioid receptor kappa; [6]): 7.73

Cc1cc(C(N)=O)ccc1-c1ccc(CN2Cc3ccccc3C2)cc1 [4B-13]
pKi (opioid receptor delta; [4]): 6.80 | pKi (opioid receptor mu; [5]): 6.68 | pKi (opioid receptor kappa; [6]): 7.48

Cc1cc(C(N)=O)ccc1-c1cc(F)c(CNC2Cc3ccccc3C2)c(F)c1 [1B-07]
pKi (opioid receptor delta; [4]): 10.00 | pKi (opioid receptor mu; [5]): 10.31 | pKi (opioid receptor kappa; [6]): 9.62

CC(C)CCNCc1ccc(-c2cccc(C(N)=O)c2)cc1Cl [1A-13]
pKi (opioid receptor delta; [10]): 7.47 | pKi (opioid receptor mu; [11]): 7.60 | pKi (opioid receptor kappa; [12]): 7.63

Cc1cc(C(N)=O)ccc1-c1ccc(CNC2Cc3ccccc3C2)c(OCc2ccccc2)c1 [4B-86]
pKi (opioid receptor delta; [1]): 10.36 | pKi (opioid receptor mu; [2]): 10.05 | pKi (opioid receptor kappa; [3]): 8.76

Cc1cc(C(N)=O)cc(C)c1-c1ccc(CNCCC(C)C)cc1 [4B-14]
pKi (opioid receptor delta; [4]): 8.20 | pKi (opioid receptor mu; [5]): 7.06 | pKi (opioid receptor kappa; [6]): 7.53

Cc1cc(C(N)=O)ccc1-c1ccc(CNCCC(C)C)cc1 [E4-02, (4′-carbamoyl-2′-methyl-biphenyl-4-ylmethyl)-(3-methyl-butyl)-ammonium chloride]
pKi (opioid receptor delta; [4]): 8.10 | pKi (opioid receptor mu; [5]): 8.21 | pKi (opioid receptor kappa; [6]): 8.67

Cc1cc(C(N)=O)ccc1-c1ccc(CNCC2CCc3ccccc3O2)cc1 (stereo not drawn) [4B-36]
pKi (opioid receptor delta; [1]): 9.34 | pKi (opioid receptor mu; [2]): 8.84 | pKi (opioid receptor kappa; [3]): 8.19

Cc1cc(C(N)=O)ccc1-c1c(C)cc(CNC2Cc3ccccc3C2)cc1Cl [4B-84]
pKi (opioid receptor delta; [1]): 10.11 | pKi (opioid receptor mu; [2]): 10.84 | pKi (opioid receptor kappa; [3]): 9.23

Cc1cc(C(N)=O)ccc1-c1cc(F)c(CNCCC(C)C)cc1F [4B-74]
pKi (opioid receptor delta; [1]): 8.32 | pKi (opioid receptor mu; [2]): 8.36 | pKi (opioid receptor kappa; [3]): 8.35

NC(=O)c1ccc(-c2ccc(CNC3Cc4ccccc4C3)cc2)c(Cl)c1 [4B-30]
pKi (opioid receptor delta; [4]): 9.42 | pKi (opioid receptor mu; [5]): 9.39 | pKi (opioid receptor kappa; [6]): 9.07

Cc1cc(C(N)=O)ccc1-c1cc(F)c(CNC2Cc3ccccc3C2)cc1F [4B-75]
pKi (opioid receptor delta; [7]): 9.51 | pKi (opioid receptor mu; [8]): 10.16 | pKi (opioid receptor kappa; [9]): 8.90

Cc1cc(C(N)=O)ccc1-c1ccc(CNCc2cccc(F)c2)cc1 [4B-17]
pKi (opioid receptor delta; [4]): 8.95 | pKi (opioid receptor mu; [5]): 8.59 | pKi (opioid receptor kappa; [6]): 8.92

Cc1cc(C(N)=O)ccc1-c1ccc(CNCCc2ccccc2)cc1 [4B-09]
pKi (opioid receptor delta; [4]): 8.74 | pKi (opioid receptor mu; [5]): 8.56 | pKi (opioid receptor kappa; [6]): 8.21

Cc1cc(C(N)=O)ccc1-c1ccc(CNCC2CCOCC2)c(F)c1 [4B-56]
pKi (opioid receptor delta; [1]): 8.07 | pKi (opioid receptor mu; [2]): 7.43 | pKi (opioid receptor kappa; [3]): 8.04

Cc1cc(C(N)=O)ccc1-c1cc(F)c(CN[C@H](C)c2ccccn2)c(F)c1 [4B-53]
pKi (opioid receptor delta; [1]): 8.43 | pKi (opioid receptor mu; [2]): 7.03 | pKi (opioid receptor kappa; [3]): 7.37

CC(C)CCNCc1ccc(-c2ccc(C(N)=O)cc2Cl)cc1F [4B-64]
pKi (opioid receptor delta; [1]): 8.25 | pKi (opioid receptor mu; [2]): 7.92 | pKi (opioid receptor kappa; [3]): 8.40

Cc1cc(C(N)=O)ccc1-c1c(C)cc(CNCCC(C)C)cc1Cl [4B-83]
pKi (opioid receptor delta; [1]): 8.78 | pKi (opioid receptor mu; [2]): 9.37 | pKi (opioid receptor kappa; [3]): 8.43

Cc1cc(C(N)=O)ccc1-c1ccc(CNCC2Cc3ccccc3C2)cc1 [4B-35]
pKi (opioid receptor delta; [1]): 9.16 | pKi (opioid receptor mu; [2]): 8.88 | pKi (opioid receptor kappa; [3]): 8.15

CC(C)CCNCc1ccc(-c2cccc(C(N)=O)c2)cc1 [4A-01]
pKi (opioid receptor delta; [10]): 7.80 | pKi (opioid receptor mu; [11]): 7.48 | pKi (opioid receptor kappa; [12]): 7.57

Cc1cc(C(N)=O)ccc1-c1ccc(CNCC2CCOCC2)cc1 [4B-40]
pKi (opioid receptor delta; [1]): 7.69 | pKi (opioid receptor mu; [2]): 7.32 | pKi (opioid receptor kappa; [3]): 8.04

NC(=O)c1ccc(-c2ccc(CNCCC3CCOCC3)cc2)c(Cl)c1 [4B-37]
pKi (opioid receptor delta; [1]): 7.22 | pKi (opioid receptor mu; [2]): 7.86 | pKi (opioid receptor kappa; [3]): 8.34

CC(C)CCNCc1ccc(-c2ccc(C(N)=O)c(F)c2)cc1 [4B-15]
pKi (opioid receptor delta; [4]): 6.45 | pKi (opioid receptor mu; [5]): 6.53 | pKi (opioid receptor kappa; [6]): 6.56

Cc1cc(C(N)=O)ccc1-c1cc(F)c(CNCCC2CCOCC2)c(F)c1 [4B-50]
pKi (opioid receptor delta; [7]): 9.87 | pKi (opioid receptor mu; [8]): 8.84 | pKi (opioid receptor kappa; [9]): 9.02

Cc1cc(C(N)=O)ccc1-c1cc(F)c(CNC2CCCC2)c(F)c1 [4B-54]
pKi (opioid receptor delta; [1]): 7.84 | pKi (opioid receptor mu; [2]): 7.43 | pKi (opioid receptor kappa; [3]): 7.81

NC(=O)c1cnc(-c2ccc(CNC3Cc4ccccc4C3)cc2)c(Cl)c1 [4C-02]
pKi (opioid receptor delta; [1]): 8.71 | pKi (opioid receptor mu; [2]): 9.31 | pKi (opioid receptor kappa; [3]): 8.71

CC(C)CCNCc1ccc(-c2ccc(C(N)=O)cc2Cl)cc1Cl [4B-65]
pKi (opioid receptor delta; [1]): 8.32 | pKi (opioid receptor mu; [2]): 7.97 | pKi (opioid receptor kappa; [3]): 8.67

CC(C)CCNCc1ccc(-c2ccc(C(N)=O)cc2Cl)c(Cl)c1 [4B-66]
pKi (opioid receptor delta; [1]): 8.12 | pKi (opioid receptor mu; [2]): 8.11 | pKi (opioid receptor kappa; [3]): 8.60

Source: US7615651B2, “Diaryl, dipyridinyl and aryl-pyridinyl derivatives and uses thereof” (Pfizer Inc., priority 2006, dated 2009)
